Literature values in patent US20180353602A1, “COMBINATION OF HDAC INHIBITOR AND ANTI-PD-L1 ANTIBODY FOR TREATMENT OF CANCER” (Syndax Pharmaceuticals, Inc., priority 2015, published 2018).
Where two headings read alike, the source gives them in different places.

Columns and labels:
[1] = in vivo
[2] = test system: squamous or non-squamous non small cell lung cancer (NSCLC); settings: ≤1, 10, 15, and 25 mg/kg every 3 weeks for up to 1 year

Compound | half-life [1] | 24-week progression free survival (PFS) rate ([2]; non-squamous cell NSCLC patients) [%] | 24-week progression free survival (PFS) rate ([2]; squamous cell NSCLC patients) [%]
Nc1ccccc1NC(=O)c1ccc(CNC(=O)OCc2cccnc2)cc1 [Entinostat, N-(2-aminophenyl)-4-[N-(pyridine-3-yl)methoxycarbonylamino-methyl]-benzamide] | about 100 hours | – | –
MPDL3280A: human anti-PD-L1 mAb directed against the protein ligand PD-L1, with an engineered Fc domain minimizing ADCC | – | 46 | 44
